The target of this test is T1, EPHB1 (Homo sapiens, UniProt P54762).
T1 construct: purchased Thermo Fisher Scientific (Life Technologies) SelectScreen
The test can be described thus: SelectScreen Z'LYTE. It counts as biochemical. The procedure, abridged:
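NU5455 was profiled across the SelectScreen Broad panel of kinase activity and binding assays. Z'LYTE reactions such as CSF1R ran at apparent Km ATP, while the Adapta CAMK1 assay used ATP listed as 10. Values are given as percent.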

Molecules are shown by their SMILES.

T1 sequence (P54762 18-984): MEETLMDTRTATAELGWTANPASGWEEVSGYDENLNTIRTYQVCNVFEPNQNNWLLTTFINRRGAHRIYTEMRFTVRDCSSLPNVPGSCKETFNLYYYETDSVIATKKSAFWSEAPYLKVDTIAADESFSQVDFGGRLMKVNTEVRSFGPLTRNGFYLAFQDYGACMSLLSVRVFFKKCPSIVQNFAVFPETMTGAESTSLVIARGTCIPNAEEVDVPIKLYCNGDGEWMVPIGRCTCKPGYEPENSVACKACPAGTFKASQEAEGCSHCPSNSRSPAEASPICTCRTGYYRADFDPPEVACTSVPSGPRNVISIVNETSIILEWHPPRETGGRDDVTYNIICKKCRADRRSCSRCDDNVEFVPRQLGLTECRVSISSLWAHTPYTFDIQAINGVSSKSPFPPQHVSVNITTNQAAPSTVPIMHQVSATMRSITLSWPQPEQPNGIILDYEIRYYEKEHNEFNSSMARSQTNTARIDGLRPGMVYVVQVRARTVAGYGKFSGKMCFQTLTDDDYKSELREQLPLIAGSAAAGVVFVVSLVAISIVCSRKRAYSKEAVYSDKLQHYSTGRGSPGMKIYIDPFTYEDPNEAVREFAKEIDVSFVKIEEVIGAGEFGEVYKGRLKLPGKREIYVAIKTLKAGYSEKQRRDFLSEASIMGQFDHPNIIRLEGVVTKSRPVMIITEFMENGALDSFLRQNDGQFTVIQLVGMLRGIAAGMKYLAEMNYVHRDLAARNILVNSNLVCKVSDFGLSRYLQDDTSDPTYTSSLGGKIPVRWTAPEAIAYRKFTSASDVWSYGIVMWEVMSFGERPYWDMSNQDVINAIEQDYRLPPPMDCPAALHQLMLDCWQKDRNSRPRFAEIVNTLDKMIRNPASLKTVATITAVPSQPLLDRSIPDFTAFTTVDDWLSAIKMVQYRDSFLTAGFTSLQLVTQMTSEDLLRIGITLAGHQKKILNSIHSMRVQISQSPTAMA

`CN(C(=O)CN1CCOCC1)c1ccc2sc3c(-c4cccc5c(=O)cc(N6CC7CCC(C6)O7)oc45)cccc3c2c1` [NU5455]: 1 µM produced 5.1% inhibition.

The values are drawn from paper PMC6934184, “Selective DNA-PKcs inhibition extends the therapeutic index of localized radiotherapy and chemotherapy” (The Journal of Clinical Investigation, 2019).
